Assay results taken from patent US11357779B2 (G1 Therapeutics, Inc., priority 2018, dated 2022).
Where two headings read alike, the source gives them in different places.

Experiment: Plasma concentration versus time of Compound I and metabolite Compound III in patients dosed QD or BID with Form B of Compound II plus fulvestrant
Assay type: in vivo, human
Conditions: human, plasma, oral; for concentration at 8 h: Day 1, 8.0 h; for concentration at 10 h: Day 1, 10.0 h; for concentration at 12 h: Day 1, 12.0 h; for concentration at 8 day: Day 8; for concentration at 15 day: Day 15; for concentration at 22 day: Day 22
Text: Patients were enrolled into 1 of 2 parallel, independently operating, dose-escalation dosing cohorts with Form B of Compound II administered continuously either once daily (QD) or twice daily (BID) with food with fixed-dose fulvestrant (intramuscularly every 14 days for the first three injections and then every 28 days). Pre- or perimenopausal patients also received goserelin for the duration of study treatment. A […] agonist was started at least 28 days before the first dose of Form B, and those patients who were taking another LHRH agonist were switched to goserelin on Day 1. Patients were split into […] cohorts providing once a day (QD) dosing of 200 mg, 300 mg, 400 mg, 500 mg, or 650 mg of Form B, or twice a day (BID) dosing of 100 mg, 150 mg, or 200 mg of Form B. The second dose in BID cohorts was not administered in the evening until at least 12 hours after the initial morning dose of Form B. The dosing cohorts for Form B of Compound II are provided in Table 1.
Blood samples were collected at the following time points relative to the morning dose of Form B at Day 1 and at Day 29: pre-dose (0 hour) and 1, 2, 3, 4, 6, 8, 10, 12 (prior to the evening dose in the BID cohorts), and 24 (prior to the next day's morning dose) hours after dosing. A 5-minute time window was allowed for samples collected between the predose and 3 hours after Form B dosing. A 15-minute window was allowed for samples collected between 4 to 12 hours after Form B dosing. A 1-hour window was allowed for the sample collected 24 hours after Form B dosing. Blood samples for Compound I PK trough levels were collected pre-dose at Day 8, Day 15, and Day 22 prior to the morning administration of Compound I. Plasma concentrations of Compound I and its metabolite, Compound III, were measured using validated methods.
Analysis of plasma concentration versus time data for calculation of standard pharmacokinetic (PK) parameters following oral administration was conducted using Phoenix WinNonlin version 6.3 using actual blood sampling times.

[1] = 100 mg, 100 mg BID of Form B, Mean, read-out: Compound III Concentration
[2] = 100 mg, 100 mg BID of Form B, Median, read-out: Compound III Concentration
[3] = 100 mg, Cohort 6, 100 mg BID of Form B, read-out: Trough Compound III Concentration, Median
[4] = 100 mg, Cohort 6, 100 mg BID of Form B, read-out: Trough Compound III Concentration, Min
[5] = 400 mg, Cohort 3, 400 mg QD of Form B, read-out: Trough Compound III Concentration, Max
[6] = 400 mg, Cohort 3, 400 mg QD of Form B, read-out: Trough Compound III Concentration, Mean
[7] = 400 mg, Cohort 3, 400 mg QD of Form B, read-out: Trough Compound III Concentration, Median
[8] = 500 mg, Cohort 4, 500 mg QD of Form B, read-out: Trough Compound III Concentration, Max
[9] = 500 mg, Cohort 4, 500 mg QD of Form B, read-out: Trough Compound III Concentration, Mean
[10] = 500 mg, Cohort 4, 500 mg QD of Form B, read-out: Trough Compound III Concentration, Median
[11] = 500 mg, Cohort 4, 500 mg QD of Form B, read-out: Trough Compound III Concentration, Min

O=C1NCC2(CCCCC2)n2c1cc1cnc(Nc3ccc(N4CCNCC4)cn3)nc12 [Compound III, 2′-((5-(piperazin-1-yl)pyridin-2-yl)amino)-7′,8′-dihydro-6′H-spiro[cyclohexane-1,9′-pyrazino[1′,2′:1,5]pyrrolo[2,3-d]pyrimidin]-6′-one]
concentration at 0 h (100 mg, 100 mg BID of Form B, Day 1, 0.0 h, Mean, read-out: Compound III Concentration): 0 ng/mL | concentration at 0 h (100 mg, 100 mg BID of Form B, Day 1, 0.0 h, Median, read-out: Compound III Concentration): 0 ng/mL | concentration at 1 h (100 mg, 100 mg BID of Form B, Day 1, 1.0 h, Mean, read-out: Compound III Concentration): 0.248 ng/mL | concentration at 1 h (100 mg, 100 mg BID of Form B, Day 1, 1.0 h, Median, read-out: Compound III Concentration): 0 ng/mL | concentration at 2 h (100 mg, 100 mg BID of Form B, Day 1, 2.0 h, Mean, read-out: Compound III Concentration): 1.04 ng/mL | concentration at 2 h (100 mg, 100 mg BID of Form B, Day 1, 2.0 h, Median, read-out: Compound III Concentration): 1 ng/mL | concentration at 3 h (100 mg, 100 mg BID of Form B, Day 1, 3.0 h, Mean, read-out: Compound III Concentration): 1.41 ng/mL | concentration at 3 h (100 mg, 100 mg BID of Form B, Day 1, 3.0 h, Median, read-out: Compound III Concentration): 1.42 ng/mL | concentration at 4 h (100 mg, 100 mg BID of Form B, Day 1, 4.0 h, Mean, read-out: Compound III Concentration): 1.25 ng/mL | concentration at 4 h (100 mg, 100 mg BID of Form B, Day 1, 4.0 h, Median, read-out: Compound III Concentration): 1.13 ng/mL | concentration at 6 h (100 mg, 100 mg BID of Form B, Day 1, 6.0 h, Mean, read-out: Compound III Concentration): 0.471 ng/mL | concentration at 6 h (100 mg, 100 mg BID of Form B, Day 1, 6.0 h, Median, read-out: Compound III Concentration): 0.382 ng/mL | concentration at 8 h [1]: 0.219 ng/mL | concentration at 8 h [2]: 0 ng/mL | concentration at 10 h [1]: 0 ng/mL | concentration at 10 h [2]: 0 ng/mL | concentration at 12 h [1]: 0.0917 ng/mL | concentration at 12 h [2]: 0 ng/mL | concentration at 8 day [3]: 0.481 ng/mL | concentration at 8 day [4]: 0 ng/mL | concentration at 15 day [3]: 0.895 ng/mL | concentration at 15 day [4]: 0 ng/mL | concentration at 22 day [3]: 0.403 ng/mL | concentration at 22 day [4]: 0 ng/mL | concentration at 0 h (150 mg, 150 mg BID of Form B, Day 1, 0.0 h, Median, read-out: Compound III Concentration): 0 ng/mL | concentration at 1 h (150 mg, 150 mg BID of Form B, Day 1, 1.0 h, Median, read-out: Compound III Concentration): 1.52 ng/mL | concentration at 8 day [5]: 0.702 ng/mL | concentration at 8 day [6]: 0.406 ng/mL | concentration at 8 day [7]: 0.515 ng/mL | concentration at 15 day [5]: 0.665 ng/mL | concentration at 15 day [6]: 0.435 ng/mL | concentration at 15 day [7]: 0.64 ng/mL | concentration at 22 day [5]: 0.935 ng/mL | concentration at 22 day [6]: 0.729 ng/mL | concentration at 22 day [7]: 0.736 ng/mL | concentration at 22 day (400 mg, Cohort 3, 400 mg QD of Form B, read-out: Trough Compound III Concentration, Min): 0.515 ng/mL | concentration at 8 day [8]: 1.98 ng/mL | concentration at 8 day [9]: 1.71 ng/mL | concentration at 8 day [10]: 1.62 ng/mL | concentration at 8 day [11]: 1.53 ng/mL | concentration at 15 day [8]: 2.66 ng/mL | concentration at 15 day [9]: 2.07 ng/mL | concentration at 15 day [10]: 2.15 ng/mL | concentration at 15 day [11]: 1.33 ng/mL | concentration at 22 day [8]: 2.11 ng/mL | concentration at 22 day [9]: 1.73 ng/mL | concentration at 22 day [10]: 1.58 ng/mL | concentration at 22 day [11]: 1.5 ng/mL | concentration at 0 h (500 mg, Cohort 4, 500 mg QD of Form B, Day 29, 0.0 h, read-out: Compound III Concentration, Mean): 1.76 ng/mL | concentration at 0 h (500 mg, Cohort 4, 500 mg QD of Form B, Day 29, 0.0 h, read-out: Compound III Concentration, Min): 1.41 ng/mL | concentration at 1 h (500 mg, Cohort 4, 500 mg QD of Form B, Day 29, 1.0 h, read-out: Compound III Concentration, Mean): 2.98 ng/mL | concentration at 1 h (500 mg, Cohort 4, 500 mg QD of Form B, Day 29, 1.0 h, read-out: Compound III Concentration, Min): 2.06 ng/mL | concentration at 2 h (500 mg, Cohort 4, 500 mg QD of Form B, Day 29, 2.0 h, read-out: Compound III Concentration, Mean): 4.39 ng/mL | concentration at 2 h (500 mg, Cohort 4, 500 mg QD of Form B, Day 29, 2.0 h, read-out: Compound III Concentration, Min): 3.61 ng/mL | concentration at 3 h (500 mg, Cohort 4, 500 mg QD of Form B, Day 29, 3.0 h, read-out: Compound III Concentration, Mean): 5.9 ng/mL | concentration at 3 h (500 mg, Cohort 4, 500 mg QD of Form B, Day 29, 3.0 h, read-out: Compound III Concentration, Min): 4.66 ng/mL | concentration at 4 h (500 mg, Cohort 4, 500 mg QD of Form B, Day 29, 4.0 h, read-out: Compound III Concentration, Mean): 5.77 ng/mL | concentration at 4 h (500 mg, Cohort 4, 500 mg QD of Form B, Day 29, 4.0 h, read-out: Compound III Concentration, Min): 4.04 ng/mL | concentration at 6 h (500 mg, Cohort 4, 500 mg QD of Form B, Day 29, 6.0 h, read-out: Compound III Concentration, Mean): 4.18 ng/mL | concentration at 6 h (500 mg, Cohort 4, 500 mg QD of Form B, Day 29, 6.0 h, read-out: Compound III Concentration, Min): 3.55 ng/mL
